In the supplement of paper PMC10307832:

How the values were obtained:
Experiment in all cases: relative viability (nuclei count vs DMSO), 5 days (fraction); higher = more cells survive
[1] = compound: Nc1ccccc1NC(=O)c1ccc(CNC(=O)OCc2cccnc2)cc1 [Entinostat] + Cc1nc(NC(=O)N2CCC[C@H]2C(N)=O)sc1-c1ccnc(C(C)(C)C(F)(F)F)c1 [Alpelisib] (partner 2 µM)
Procedure, shortened: (§1)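 A single step with final 0.05% Triton X-100, 1% formaldehyde and 1 ug/ml Hoechst fixed the cells and stained nuclei 5 days after treatment. Lung cancer cell lines in 1536-well plates had been treated by pin tool the day after seeding with one drug alone or a fixed anchor-drug dose plus five library-drug doses (not always all listed) in √10 steps, and nuclei were counted on 4× images. Relative viability is the ratio of nuclei in treated wells to nuclei in vehicle wells, taken as the median of duplicate plates.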

[2] = compound: C1COCCN1C2=NC(=NC3=C2OC4=C3C=CC=N4)C5=CC(=CC=C5)NC(=O)C6=CN=C(C=C6)N + CC(C)C[C@H](NC(=O)[C@H](Cc1ccccc1)NC(=O)c1cnccn1)B(O)O [Bortezomib] (partner 0.002 µM)
Procedure, shortened: as §1

[3] = compound: CN1CCC(CNc2ccc3ncc(-c4cccc(OC(F)(F)F)c4)n3n2)CC1 [SGI-1776] + O=C(CCCCCCC(=O)Nc1ccccc1)NO [Vorinostat] (partner 1 µM)
Procedure, shortened: as §1

[4] = compound: Nc1ccccc1NC(=O)c1ccc(CNC(=O)OCc2cccnc2)cc1 [Entinostat] + Cc1cc(Nc2cc(N3CCN(C)CC3)nc(Sc3ccc(NC(=O)C4CC4)cc3)n2)n[nH]1 [Tozasertib] (partner 0.1 µM)
Procedure, shortened: as §1

UMC-11
relative viability ([1]; first compound 0.02 µM): 1.12
relative viability ([1]; first compound 0.06325 µM): 1.01
relative viability ([1]; first compound 0.2 µM): 0.702
relative viability ([1]; first compound 0.6325 µM): 0.168
relative viability ([1]; first compound 2 µM): 0.116
relative viability ([2]; first compound 0.02 µM): 0.79
relative viability ([2]; first compound 0.06325 µM): 0.838
relative viability ([2]; first compound 0.2 µM): 0.669
relative viability ([2]; first compound 0.6325 µM): 1.08
relative viability ([2]; first compound 2 µM): 0.519
relative viability ([3]; first compound 0.08 µM): 0.404
relative viability ([3]; first compound 0.8 µM): 0.378
relative viability ([3]; first compound 2.53 µM): 0.357
relative viability ([3]; first compound 8 µM): 0.228
relative viability ([4]; first compound 0.02 µM): 0.218
relative viability ([4]; first compound 0.06325 µM): 0.201
relative viability ([4]; first compound 0.2 µM): 0.206
relative viability ([4]; first compound 0.6325 µM): 0.192
relative viability ([4]; first compound 2 µM): 0.163
